#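 How tested: cells in 96-well plates exposed to compound for 48 hours at five concentrations. GI50: concentration for 50% inhibition of growth.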 Active and inactive are the calls of the source. No stated cut-off is given here; in the data, active = GI50 up to about 1.1 µM and inactive = higher.
# Legend:
# Test in all cases: NCI anticancer screen, dose series, 48 h
# XF498 = test system: XF498
# M19-MEL = test system: M19-MEL
# HOP-18 = test system: HOP-18
# DMS-273 = test system: DMS-273
# DMS-114 = test system: DMS-114
# LXFL 529 = test system: LXFL 529
# SNB-78 = test system: SNB-78
# KM-20L2 = test system: KM-20L2
# RXF 631 = test system: RXF 631
Compound,GI50 (XF498),GI50 (M19-MEL),GI50 (HOP-18),GI50 (DMS-273),GI50 (DMS-114),GI50 (LXFL 529),GI50 (SNB-78),GI50 (KM-20L2),GI50 (RXF 631)
CC1CCC2(OCCO2)[C@]2(C)CC(O)C(=O)C=C12 (stereo partly specified),> 100 µM (inactive),> 100 µM (inactive),> 100 µM (inactive),> 100 µM (inactive),> 100 µM (inactive),> 100 µM (inactive),,,
CC(=O)OC12CCCCC1C1(CCCC1)NC2=O (stereo unspecified),> 100 µM (inactive),> 100 µM (inactive),> 100 µM (inactive),,> 100 µM (inactive),> 100 µM (inactive),> 100 µM (inactive),> 100 µM (inactive),
O=C1[C@H]2ON(c3ccccc3)C(c3ccccc3)[C@H]2C(=O)N1c1ccc(Cc2ccc(N3C(=O)[C@@H]4ON(c5ccccc5)C(c5ccccc5)[C@@H]4C3=O)cc2)cc1 (stereo partly specified),,,> 100 µM (inactive),> 100 µM (inactive),> 100 µM (inactive),> 100 µM (inactive),> 100 µM (inactive),> 100 µM (inactive),> 100 µM (inactive)
O=C(/C(=C/c1ccccc1)c1ccccc1)N1c2ccccc2CC1c1c[nH]c2ccccc12 (stereo unspecified),3.05 µM (inactive),38.6 µM (inactive),,7.83 µM (inactive),5.7 µM (inactive),8.3 µM (inactive),9.2 µM (inactive),26.8 µM (inactive),
Cc1ccc(NC(=O)C(=O)C2NC(=S)NC2=O)c([N+](=O)[O-])c1 (stereo unspecified),> 100 µM (inactive),> 100 µM (inactive),> 100 µM (inactive),> 100 µM (inactive),> 100 µM (inactive),> 100 µM (inactive),> 100 µM (inactive),> 100 µM (inactive),
Cc1ccc(S(=O)(=O)N/N=C\c2c3ccccc3[n+](C)c3ccccc23)cc1,,32.1 µM (inactive),,22.1 µM (inactive),24.9 µM (inactive),,61.7 µM (inactive),31.7 µM (inactive),
CC(=O)C1C(=O)C(=O)N(CCN2C(=O)C(=O)C(C(C)=O)C2=O)C1=O (stereo unspecified),> 100 µM (inactive),> 100 µM (inactive),> 100 µM (inactive),> 100 µM (inactive),> 100 µM (inactive),> 100 µM (inactive),,> 100 µM (inactive),> 100 µM (inactive)
COc1ccc(CC2NCCc3c2[nH]c2ccccc32)cc1 (stereo unspecified),16.9 µM (inactive),71.4 µM (inactive),,26.5 µM (inactive),33.1 µM (inactive),62.4 µM (inactive),70.6 µM (inactive),33.7 µM (inactive),25.3 µM (inactive)
Cc1ccc(Nc2nc3c(s2)C(=O)c2ccccc2C3=O)cc1,1.94 µM (inactive),0.324 µM (active),1.13 µM (inactive),1.95 µM (inactive),1.52 µM (inactive),1.63 µM (inactive),2.49 µM (inactive),17.5 µM (inactive),1.95 µM (inactive)
CC1(C)OCN(c2ccc(N3CCOCC3)cc2)Cn2c1nc1ccccc12,,> 100 µM (inactive),> 100 µM (inactive),80.9 µM (inactive),> 100 µM (inactive),> 100 µM (inactive),> 100 µM (inactive),> 100 µM (inactive),
FC(F)(F)c1nc2ccc3[nH]c4c(-c5ccccc5)nccc4c3c2[nH]1,> 100 µM (inactive),> 100 µM (inactive),> 100 µM (inactive),,> 45.4 µM (inactive),> 100 µM (inactive),> 100 µM (inactive),> 100 µM (inactive),> 100 µM (inactive)
c1cnc2nc3n(c2c1)CSC3,> 100 µM (inactive),> 100 µM (inactive),,,> 100 µM (inactive),> 100 µM (inactive),> 100 µM (inactive),> 100 µM (inactive),
O=C(O/N=C1/CCCC/C1=C\c1ccccc1)c1ccc(Cl)cc1,0.439 µM (active),> 100 µM (inactive),> 100 µM (inactive),> 100 µM (inactive),,48 µM (inactive),> 100 µM (inactive),> 100 µM (inactive),
CC1(Cl)C(=O)NC(=O)N([C@H]2C[C@H](O)[C@@H](CO)O2)C1N=[N+]=[N-] (stereo partly specified),> 100 µM (inactive),> 100 µM (inactive),> 100 µM (inactive),> 100 µM (inactive),> 94.8 µM (inactive),> 100 µM (inactive),> 100 µM (inactive),> 100 µM (inactive),> 100 µM (inactive)
CC(C)[C@@H]1C=C(c2ccccc2)c2ccccc2C1C(C#N)(C#N)C(C)C (stereo partly specified),45 µM (inactive),> 100 µM (inactive),> 100 µM (inactive),48.6 µM (inactive),97.7 µM (inactive),> 100 µM (inactive),> 100 µM (inactive),> 100 µM (inactive),
COc1cccc(N2C(=O)[C@H]3[C@H]4CC(C(C)(C)C)CC[C@H]4c4c([nH]c5ccccc45)[C@H]3C2=O)c1 (stereo partly specified),,19 µM (inactive),,18.3 µM (inactive),17.7 µM (inactive),20 µM (inactive),14.5 µM (inactive),,17.6 µM (inactive)
C/C(CN1C(=O)c2ccccc2C1=O)=N\NS(=O)(=O)c1ccc(Cl)cc1,> 100 µM (inactive),> 100 µM (inactive),> 100 µM (inactive),> 100 µM (inactive),,> 100 µM (inactive),> 100 µM (inactive),> 100 µM (inactive),> 100 µM (inactive)
COc1c(C2=NC(C(C)C)CO2)ccc2ccccc12 (stereo unspecified),30.4 µM (inactive),55.5 µM (inactive),,23 µM (inactive),,19.2 µM (inactive),79.4 µM (inactive),42.1 µM (inactive),39.5 µM (inactive)
NS(=O)(=O)c1ccc(NC(=O)c2cccc3c(=O)c4ccccc4[nH]c23)cc1,11.5 µM (inactive),73.3 µM (inactive),> 100 µM (inactive),70.1 µM (inactive),74.8 µM (inactive),30.6 µM (inactive),49.3 µM (inactive),38.6 µM (inactive),
Cc1nc2ccccc2c(=O)n1/N=C(\N=N\c1cc(Cl)ccc1Cl)c1cccc(-c2ccco2)c1,,> 100 µM (inactive),> 100 µM (inactive),63.2 µM (inactive),41.4 µM (inactive),,,,> 100 µM (inactive)
C=C1C(=O)C23C(O)C1CC[C@H]2C12CCCC(C)(COC(C)=O)[C@H]1[C@H](O)[C@]3(O)OC2 (stereo partly specified),1.4 µM (inactive),2.01 µM (inactive),1.27 µM (inactive),1.94 µM (inactive),1.87 µM (inactive),0.427 µM (active),0.653 µM (active),1.56 µM (inactive),
O=[N+]([O-])c1nccn1COCCI,> 100 µM (inactive),> 100 µM (inactive),,> 100 µM (inactive),> 100 µM (inactive),> 100 µM (inactive),> 100 µM (inactive),> 100 µM (inactive),
CC(=O)c1cc2c3c(c1)c1cc4c(cc1c(=O)n3CC2)OCO4,> 100 µM (inactive),34 µM (inactive),13.5 µM (inactive),7 µM (inactive),37.7 µM (inactive),10.4 µM (inactive),> 100 µM (inactive),23.7 µM (inactive),21.5 µM (inactive)
CCc1c(OC(C)=O)c2c(NC3OC(COC(C)=O)C(OC(C)=O)C(OC(C)=O)C3OC(C)=O)nc(OC)nc2oc1=O (stereo unspecified),> 100 µM (inactive),> 100 µM (inactive),> 100 µM (inactive),> 100 µM (inactive),> 100 µM (inactive),> 100 µM (inactive),> 100 µM (inactive),> 100 µM (inactive),
